Measured values from patent publication US8026244B2, “Thioxanthine derivatives and their use as inhibitors of MPO” (AstraZeneca AB, priority 2006, dated 2011).

Molecular target: T1, human MPO (Homo sapiens, UniProt P05164)
T1 sequence (P05164 49-745): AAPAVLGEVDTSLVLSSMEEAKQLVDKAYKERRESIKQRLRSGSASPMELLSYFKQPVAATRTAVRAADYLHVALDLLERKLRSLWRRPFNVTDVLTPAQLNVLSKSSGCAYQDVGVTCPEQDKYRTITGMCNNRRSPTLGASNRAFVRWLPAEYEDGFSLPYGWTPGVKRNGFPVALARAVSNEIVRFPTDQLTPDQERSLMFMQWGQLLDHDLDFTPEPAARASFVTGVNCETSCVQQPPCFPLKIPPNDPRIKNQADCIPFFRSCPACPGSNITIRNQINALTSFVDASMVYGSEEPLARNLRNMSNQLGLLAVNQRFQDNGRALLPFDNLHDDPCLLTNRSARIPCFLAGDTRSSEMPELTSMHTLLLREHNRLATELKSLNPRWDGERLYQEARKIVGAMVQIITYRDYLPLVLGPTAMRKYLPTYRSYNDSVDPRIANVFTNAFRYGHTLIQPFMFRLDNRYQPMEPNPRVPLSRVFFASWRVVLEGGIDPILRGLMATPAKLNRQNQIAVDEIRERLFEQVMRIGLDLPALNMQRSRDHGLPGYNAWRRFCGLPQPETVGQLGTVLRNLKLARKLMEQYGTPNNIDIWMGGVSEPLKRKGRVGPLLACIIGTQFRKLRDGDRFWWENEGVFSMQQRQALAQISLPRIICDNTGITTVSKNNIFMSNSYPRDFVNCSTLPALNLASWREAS
Assay: MPO inhibition screen (TMB oxidation, absorbance), compounds alone or with added tyrosine
Type: biochemical
Conditions: in the presence of tyrosine (final concentration 8 μM); human MPO 2.5 nM; H2O2 100 μM; pH 6.5
Description: Methods for the determination of MPO inhibitory activity are disclosed in patent application WO 02/090575. The pharmacological activity of compounds according to the invention was tested in the following screen in which the compounds were either tested alone or in the presence of added tyrosine:
Assay buffer: 20 mM sodium/potassium phosphate buffer pH 6.5 containing 10 mM taurine and 100 mM NaCl.
Developing reagent: 2 mM 3,3′,5,5′-tetramethylbenzidine (TMB), 200 μM KI, 200 mM acetate buffer pH 5.4 with 20% DMF.
To 10 μl of diluted compounds in assay buffer, 40 μl of human MPO (final concentration 2.5 nM), with or without 20 μM tyrosine (final concentration, if present, 8 μM), was added and the mixture was incubated for 10 minutes at ambient temperature. Then 50 μl of H2O2 (final concentration 100 μM), or assay buffer alone as a control, were added. After incubation for 10 minutes at ambient temperature, the reaction was stopped by adding 10 μl 0.2 mg/ml of catalase (final concentration 18 μg/ml). The reaction mixture was left for an additional 5 minutes before 100 μl of TMB developing reagent was added. The amount of oxidised 3,3′,5,5′-tetramethylbenzidine formed was then measured after about 5 minutes using absorbance spectroscopy at about […]. IC50 values were then determined using standard procedures.

SMILES | IC50
CC(c1nc2ccccc2[nH]1)n1c(=S)[nH]c(=O)c2[nH]cnc21 (stereo not drawn) [Example 9, 3-[1-(1H-benzimidazol-2-yl)ethyl]-2-thioxo-1,2,3,7-tetrahydro-6H-purin-6-one] | 10 µM
O=c1[nH]c(=S)n(Cc2ccncc2)c2nc[nH]c12 [Example 3, 3-(pyridin-4-ylmethyl)-2-thioxo-1,2,3,7-tetrahydro-6H-purin-6-one] | 0.1 µM
CC(Cn1c(=S)[nH]c(=O)c2[nH]cnc21)NCc1cccn1C (stereo not drawn) [Example 44, 3-(2-{[(1-methyl-1H-pyrrol-2-yl)methyl]amino}propyl)-2-thioxo-1,2,3,7-tetrahydro-6H-purin-6-one] | 2.2 µM
